In brackets after ≈: the same amount, converted by molar mass.
What follows are compounds tested on Enterococcus faecium (VRE) NCTC 12952 (assay: MIC agar dilution, VRE strain 30). Settings: 22 hrs.
Assay type: cell-based
Experimental: (§1) Molar equivalent concentrations were used to allow comparison between compounds of differing molecular mass. Due to weighing difficulties, any compound in solid form was melted in a water bath prior to dilution. To make ten-times strength concentrations, which takes into account agar dilution, 0.0352 mmol of each compound was weighed into plastic universal bottles and 4 mL of sterile distilled water (SDW) was added. To produce a homogenous emulsion the universals were vortexed; once achieved the emulsions were serial diluted by adding 2 mL to 2 mL of SDW.
(§2) For every 100 mL of Isosensitest agar (IST) (CM0471; Oxoid, Basingstoke, England), 3.1 g of the IST powder was added to 100 mL SDW (as per manufacturer's instructions) and sterilised for 15 minutes at 121° C. Once sterilised, the molten agar was cooled to 50° C. in a water-bath. Subsequently 4.8 g of CCEY powder (BC2160; Bioconnections, Wetherby, England), also known as Brazier's medium, was added to 100 mL SDW for every 100 mL of agar needed. This was then sterilised for 15 minutes at 121° C. Once sterilised the molten agar was cooled to 50° C. in a water-bath and 4 mL of egg-yolk emulsion (S2073; TCS Biosciences Ltd, Buckingham, United Kingdom) and 1 mL of lysed defibrinated horse blood (HB035; TCS Biosciences Ltd, Buckingham, United Kingdom) were also added for every 100 mL needed. Horse blood lysis is achieved by dilution to half concentration with SDW; when fully lysed the mixture will turn dark red in colour.
(§3) 18 mL agar was added to each universal and then poured into sterile Petri dishes. This step creates a 1/10 dilution resulting in agar plates of the required strength. Control plates for each set of strains were created by adding 18 mL of agar to 2 mL of SDW.
(§4) Suspensions of each bacterial species were prepared with a density equal to that of a 0.5 McFarland standard using a densitometer. All suspensions were made using sterile distilled water and fresh 18-20 hour cultures. As a 0.5 McFarland standard contains 1.5×10^8 CFU/mL and the multipoint inoculators applies 1 μL spots of liquid, each bacterial suspension was diluted 1/15 (20 μL suspension to 280 μL sterile distilled water).
(§5) Bacterial suspensions were prepared from fresh 18-24 hour cultures as previously described. 1 μL of each strain was inoculated onto all 100 agar plates containing a different chemical concentration and the 2 control plates. This was done using a multipoint inoculator which inoculates 20 strains per plate. All plates were incubated for 22 hours at 37° C. in aerobic conditions.
(§6) Each plate was examined for bacterial growth after 22 and 48 hours, with each being incubated in between examinations. A positive result was recorded as growth of ≧10 colonies. A negative result was recorded as growth of <10 colonies as this is equivalent to 99.9% inhibition. The lowest concentration of chemical that inhibited growth was recorded as the MIC. The results are recorded in Table IV below, where the numbers are quoted in mmol/L.
(§7) Given the positive performance of the ethoxylates of lauryl alcohol in reducing the MIC for a number of the micro-organisms tested, further MIC testing of Laureth-1 [C12E1] through to Laureth-8 [C12E8] was conducted on each of the following: • 10 strains of vancomycin-resistant enterococci (VRE)—listed in Table V below; and • 20 strains of methicillin-resistant Staphylococcus aureus (MRSA)—listed in Table VI.
(§8) The alkanol, alkanol derivatives, agar plates, and inocula were all prepared in the same way as described above.
(§9) The plates were examined in the same manner as described above and the results are recorded in Table VII below, where the numbers are quoted in mmol/L.

**Q.** With `CCCCCCCCCCCCOCCOCCOCCOCCOCCOCCOCCO` [L7, Heptaethylene Glycol Monododecyl Ether] as the compound, how does the MIC read?
**A.** Its MIC is greater than 880 µM.

Same assay, conditions: 48 hrs

**Q.** With `CCCCCCCCCCCCOCCOCCOCCOCCOCCOCCOCCO` [L7, Heptaethylene Glycol Monododecyl Ether] as the compound, how does the MIC read?
**A.** Its MIC is greater than 880 µM.

The compounds below were run on MRSA FRA 920 (assay: MIC agar dilution, MRSA strain 38). Settings: Staphylococcus aureus, 22 hrs.
Assay type: cell-based
Experimental: as §1, §2, §3, §4, §5, §6, §7, §8, §9

**Q.** With `CCCCCCCCCCCCOCCOCCOCCOCCOCCOCCOCCO` [L7, Heptaethylene Glycol Monododecyl Ether] as the compound, how does the MIC read?
**A.** Its MIC is 220 µM (≈ 109 µg/mL).

Same assay, conditions: Staphylococcus aureus, 48 hrs

**Q.** For `CCCCCCCCCCCCOCCOCCOCCOCCOCCOCCOCCO` [L7, Heptaethylene Glycol Monododecyl Ether], which MIC is on record?
**A.** The MIC was 440 µM (≈ 218 µg/mL).

These compounds were tested on Candida glabrata (assay: MIC agar dilution, micro-organism 20 (3943)). Settings: Nakaseomyces glabratus; Candida glabrata 3943; 22 hrs; read-out: MIC.
Assay type: cell-based
How it was run: (§10)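 Agar dilution in Isosensitest/CCEY agar with egg yolk and lysed horse blood; compounds as aqueous emulsions (myristyl and lauryl alcohol with 1-methyl-2-pyrrolidone and Tween 20). 1 µL spots of 1/15-diluted 0.5 McFarland suspensions, 37 °C aerobic, read at 22 and 48 h; MIC (mmol/L) is lowest concentration giving <10 colonies.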

**Q.** How did the MIC turn out when `CCCCCCCCCCCCOCCOCCOCCOCCOCCOCCOCCO` [L7, Heptaethylene Glycol Monododecyl Ether] was run?
**A.** Its MIC is greater than 880 µM.

Same assay, conditions: Nakaseomyces glabratus; Candida glabrata 3943; 48 hrs; read-out: MIC

**Q.** `CCCCCCCCCCCCOCCOCCOCCOCCOCCOCCOCCO` [L7, Heptaethylene Glycol Monododecyl Ether] was tested. Which MIC did it give?
**A.** Its MIC is greater than 880 µM.

The compounds below were run on Staphylococcus epidermidis (assay: MIC agar dilution, micro-organism 14 (11047)). Settings: Staphylococcus epidermidis 11047; 22 hrs; read-out: MIC.
Assay type: cell-based
How it was run: as §10

**Q.** With `CCCCCCCCCCCCOCCOCCOCCOCCOCCOCCOCCO` [L7, Heptaethylene Glycol Monododecyl Ether] as the compound, how does the MIC read?
**A.** Its MIC is 110 µM (≈ 54.4 µg/mL).

Same assay, conditions: Staphylococcus epidermidis 11047; 48 hrs; read-out: MIC

**Q.** How did the MIC turn out when `CCCCCCCCCCCCOCCOCCOCCOCCOCCOCCOCCO` [L7, Heptaethylene Glycol Monododecyl Ether] was run?
**A.** The MIC was 110 µM (≈ 54.4 µg/mL).

These compounds were tested on MRSA EMRSA 16 03732/95 (assay: MIC agar dilution, MRSA strain 45). Settings: Staphylococcus aureus, 22 hrs.
Assay type: cell-based
Experimental: as §1, §2, §3, §4, §5, §6, §7, §8, §9

**Q.** Which MIC does the source give for `CCCCCCCCCCCCOCCOCCOCCOCCOCCOCCOCCO` [L7, Heptaethylene Glycol Monododecyl Ether] here?
**A.** Its MIC is greater than 440 µM.

Same assay, conditions: Staphylococcus aureus, 48 hrs

**Q.** With `CCCCCCCCCCCCOCCOCCOCCOCCOCCOCCOCCO` [L7, Heptaethylene Glycol Monododecyl Ether] as the compound, how does the MIC read?
**A.** Its MIC is greater than 440 µM.

These compounds were tested on MRSA EMRSA 16 21354/95 (assay: MIC agar dilution, MRSA strain 44). Settings: Staphylococcus aureus, 22 hrs.
Assay type: cell-based
Experimental: as §1, §2, §3, §4, §5, §6, §7, §8, §9

**Q.** How did the MIC turn out when `CCCCCCCCCCCCOCCOCCOCCOCCOCCOCCOCCO` [L7, Heptaethylene Glycol Monododecyl Ether] was run?
**A.** Its MIC is greater than 440 µM.

Same assay, conditions: Staphylococcus aureus, 48 hrs

**Q.** Which MIC does the source give for `CCCCCCCCCCCCOCCOCCOCCOCCOCCOCCOCCO` [L7, Heptaethylene Glycol Monododecyl Ether] here?
**A.** Its MIC is greater than 440 µM.

Each compound was assayed on Enterococcus faecalis (VRE) MB 726 (assay: MIC agar dilution, VRE strain 28). Settings: 22 hrs.
Assay type: cell-based
Experimental: as §1, §2, §3, §4, §5, §6, §7, §8, §9

**Q.** `CCCCCCCCCCCCOCCOCCOCCOCCOCCOCCOCCO` [L7, Heptaethylene Glycol Monododecyl Ether] was tested. Which MIC did it give?
**A.** Its MIC is greater than 880 µM.

Same assay, conditions: 48 hrs

**Q.** How did the MIC turn out when `CCCCCCCCCCCCOCCOCCOCCOCCOCCOCCOCCO` [L7, Heptaethylene Glycol Monododecyl Ether] was run?
**A.** The MIC was greater than 880 µM.

Each compound was assayed on Steptococcus pyogenes (assay: MIC agar dilution, micro-organism 11 (8306)). Settings: Steptococcus pyogenes 8306; 22 hrs; read-out: MIC.
Assay type: cell-based
How it was run: as §10

**Q.** `CCCCCCCCCCCCOCCOCCOCCOCCOCCOCCOCCO` [L7, Heptaethylene Glycol Monododecyl Ether] was tested. Which MIC did it give?
**A.** The MIC was 110 µM (≈ 54.4 µg/mL).

Same assay, conditions: Steptococcus pyogenes 8306; 48 hrs; read-out: MIC

**Q.** `CCCCCCCCCCCCOCCOCCOCCOCCOCCOCCOCCO` [L7, Heptaethylene Glycol Monododecyl Ether] was tested. Which MIC did it give?
**A.** Its MIC is 110 µM (≈ 54.4 µg/mL).

The compounds below were run on Listeria monocytogenes (assay: MIC agar dilution, micro-organism 15 (11994)). Settings: Listeria monocytogenes 11994; 22 hrs; read-out: MIC.
Assay type: cell-based
How it was run: as §10

**Q.** How did the MIC turn out when `CCCCCCCCCCCCOCCOCCOCCOCCOCCOCCOCCO` [L7, Heptaethylene Glycol Monododecyl Ether] was run?
**A.** The MIC was 220 µM (≈ 109 µg/mL).

Same assay, conditions: Listeria monocytogenes 11994; 48 hrs; read-out: MIC

**Q.** With `CCCCCCCCCCCCOCCOCCOCCOCCOCCOCCOCCO` [L7, Heptaethylene Glycol Monododecyl Ether] as the compound, how does the MIC read?
**A.** The MIC was 220 µM (≈ 109 µg/mL).

Each compound was assayed on Enterococcus faecium (VRE) MB 3137 (assay: MIC agar dilution, VRE strain 26). Settings: 22 hrs.
Assay type: cell-based
Experimental: as §1, §2, §3, §4, §5, §6, §7, §8, §9

**Q.** How did the MIC turn out when `CCCCCCCCCCCCOCCOCCOCCOCCOCCOCCOCCO` [L7, Heptaethylene Glycol Monododecyl Ether] was run?
**A.** The MIC was greater than 880 µM.

Same assay, conditions: 48 hrs

**Q.** Which MIC does the source give for `CCCCCCCCCCCCOCCOCCOCCOCCOCCOCCOCCO` [L7, Heptaethylene Glycol Monododecyl Ether] here?
**A.** The MIC was greater than 880 µM.

These compounds were tested on Enterococcus casseliflavus (VRE) Clin waste (assay: MIC agar dilution, VRE strain 23). Settings: 22 hrs.
Assay type: cell-based
Experimental: as §1, §2, §3, §4, §5, §6, §7, §8, §9

**Q.** For `CCCCCCCCCCCCOCCOCCOCCOCCOCCOCCOCCO` [L7, Heptaethylene Glycol Monododecyl Ether], which MIC is on record?
**A.** Its MIC is 220 µM (≈ 109 µg/mL).

Same assay, conditions: 48 hrs

**Q.** For `CCCCCCCCCCCCOCCOCCOCCOCCOCCOCCOCCO` [L7, Heptaethylene Glycol Monododecyl Ether], which MIC is on record?
**A.** Its MIC is 220 µM (≈ 109 µg/mL).

These compounds were tested on MRSA EMRSA 15 19972/98 (assay: MIC agar dilution, MRSA strain 39). Settings: Staphylococcus aureus, 22 hrs.
Assay type: cell-based
Experimental: as §1, §2, §3, §4, §5, §6, §7, §8, §9

**Q.** How did the MIC turn out when `CCCCCCCCCCCCOCCOCCOCCOCCOCCOCCOCCO` [L7, Heptaethylene Glycol Monododecyl Ether] was run?
**A.** Its MIC is greater than 440 µM.

Same assay, conditions: Staphylococcus aureus, 48 hrs

**Q.** `CCCCCCCCCCCCOCCOCCOCCOCCOCCOCCOCCO` [L7, Heptaethylene Glycol Monododecyl Ether] was tested. Which MIC did it give?
**A.** The MIC was greater than 440 µM.

Each compound was assayed on Enterococcus faecalis (VRE) PHLS URINE 2000 (assay: MIC agar dilution, VRE strain 21). Settings: 22 hrs.
Assay type: cell-based
Experimental: as §1, §2, §3, §4, §5, §6, §7, §8, §9

**Q.** For `CCCCCCCCCCCCOCCOCCOCCOCCOCCOCCOCCO` [L7, Heptaethylene Glycol Monododecyl Ether], which MIC is on record?
**A.** The MIC was 440 µM (≈ 218 µg/mL).

Same assay, conditions: 48 hrs

**Q.** With `CCCCCCCCCCCCOCCOCCOCCOCCOCCOCCOCCO` [L7, Heptaethylene Glycol Monododecyl Ether] as the compound, how does the MIC read?
**A.** The MIC was 880 µM (≈ 435 µg/mL).

Reference: patent US20130165368A1, “ANTIMICROBIAL COMPOUNDS” (priority 2010, published 2013)
